Test results taken from patent US20070021391A1, “Preventive/remedy for urinary disturbance” (priority 2003, published 2007).
Like-named read-outs stand apart in the source and are kept apart here.

Experiments:
[1] = system: butyrylcholine esterase/acetylcholine esterase; details: Literature 7; species not given; cited from earlier work
Acetylcholine esterase [2] = target: T1, Acetylcholine esterase (Rattus norvegicus, UniProt P37136); details: Literature 6, read-out: Acetylcholine esterase inhibitory activity (IC50); cited from earlier work
T1 sequence (P37136 32-614): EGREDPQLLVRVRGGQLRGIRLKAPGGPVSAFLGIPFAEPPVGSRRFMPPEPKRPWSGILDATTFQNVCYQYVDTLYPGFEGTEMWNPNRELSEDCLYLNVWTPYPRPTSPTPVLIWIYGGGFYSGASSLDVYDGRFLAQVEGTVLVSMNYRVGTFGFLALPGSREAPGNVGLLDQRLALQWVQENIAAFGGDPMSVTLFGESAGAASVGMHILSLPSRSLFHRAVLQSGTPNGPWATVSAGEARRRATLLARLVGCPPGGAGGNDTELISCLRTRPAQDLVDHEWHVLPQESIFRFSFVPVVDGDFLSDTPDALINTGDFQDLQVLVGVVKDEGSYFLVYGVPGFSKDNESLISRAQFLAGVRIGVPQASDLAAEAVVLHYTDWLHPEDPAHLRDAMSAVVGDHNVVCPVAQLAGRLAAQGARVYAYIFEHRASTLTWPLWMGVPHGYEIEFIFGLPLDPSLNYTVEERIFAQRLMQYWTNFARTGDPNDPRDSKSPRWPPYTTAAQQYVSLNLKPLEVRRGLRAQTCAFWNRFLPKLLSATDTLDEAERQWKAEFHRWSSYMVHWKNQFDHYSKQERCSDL

Butyrylcholine esterase [3] = target: Butyrylcholine esterase (Rattus norvegicus, UniProt Q9JKC1); details: Literature 6, read-out: Butyrylcholine esterase inhibitory activity (IC50); cited from earlier work
Sequence of Butyrylcholine esterase (Rattus norvegicus, UniProt Q9JKC1) (Q9JKC1 24-597): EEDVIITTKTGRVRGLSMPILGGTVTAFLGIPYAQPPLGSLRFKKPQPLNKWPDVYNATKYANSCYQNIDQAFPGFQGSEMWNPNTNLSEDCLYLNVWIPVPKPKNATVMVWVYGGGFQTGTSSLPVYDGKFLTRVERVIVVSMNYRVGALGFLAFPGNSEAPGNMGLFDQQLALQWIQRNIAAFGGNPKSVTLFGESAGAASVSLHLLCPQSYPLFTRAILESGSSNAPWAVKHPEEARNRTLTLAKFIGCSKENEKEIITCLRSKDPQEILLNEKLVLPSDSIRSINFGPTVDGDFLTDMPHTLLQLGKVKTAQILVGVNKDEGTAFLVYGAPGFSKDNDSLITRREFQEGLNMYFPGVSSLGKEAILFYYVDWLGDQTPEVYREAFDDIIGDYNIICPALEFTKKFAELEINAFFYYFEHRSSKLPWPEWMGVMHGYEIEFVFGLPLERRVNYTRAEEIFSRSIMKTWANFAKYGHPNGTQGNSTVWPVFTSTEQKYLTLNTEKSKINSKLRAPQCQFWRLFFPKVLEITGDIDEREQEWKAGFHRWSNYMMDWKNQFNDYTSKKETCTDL

bladder muscle = system: bladder muscle; design: species or system guinea pig; details: for Tension (%): 30 minutes, change of basic tension, 100 mM KCl contraction = 100%
[4] = target: T2, butyrylcholine esterase of human serum origin (Homo sapiens, UniProt P06276); assay: biochemical; format: biochemical
T2 construct: butyrylcholine esterase of human serum origin; purchased Biogenesis, Poole, UK; host or cells: human serum
T2 sequence (P06276 29-602): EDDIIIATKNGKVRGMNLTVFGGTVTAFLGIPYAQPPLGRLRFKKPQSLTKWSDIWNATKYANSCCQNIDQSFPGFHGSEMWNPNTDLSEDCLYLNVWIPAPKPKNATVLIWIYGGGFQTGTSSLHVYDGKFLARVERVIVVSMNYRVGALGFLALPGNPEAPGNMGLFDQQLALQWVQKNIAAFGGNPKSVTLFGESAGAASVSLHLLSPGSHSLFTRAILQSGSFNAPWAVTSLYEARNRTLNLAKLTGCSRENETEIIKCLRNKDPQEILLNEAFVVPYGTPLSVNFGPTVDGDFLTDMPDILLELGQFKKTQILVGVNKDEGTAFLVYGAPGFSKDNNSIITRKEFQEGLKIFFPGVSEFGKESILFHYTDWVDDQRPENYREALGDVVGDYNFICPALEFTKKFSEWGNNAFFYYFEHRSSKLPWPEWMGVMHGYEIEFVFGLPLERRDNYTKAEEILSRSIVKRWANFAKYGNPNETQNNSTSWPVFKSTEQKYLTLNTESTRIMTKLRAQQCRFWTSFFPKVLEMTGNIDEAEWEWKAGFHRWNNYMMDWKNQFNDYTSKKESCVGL

Butyrylcholine esterase [5] = target: Butyrylcholine esterase (Equus caballus, UniProt P81908); details: read-out: Butyrylcholine esterase inhibitory activity (IC50); cited from earlier work
Sequence of Butyrylcholine esterase (Equus caballus, UniProt P81908) (P81908 whole entry): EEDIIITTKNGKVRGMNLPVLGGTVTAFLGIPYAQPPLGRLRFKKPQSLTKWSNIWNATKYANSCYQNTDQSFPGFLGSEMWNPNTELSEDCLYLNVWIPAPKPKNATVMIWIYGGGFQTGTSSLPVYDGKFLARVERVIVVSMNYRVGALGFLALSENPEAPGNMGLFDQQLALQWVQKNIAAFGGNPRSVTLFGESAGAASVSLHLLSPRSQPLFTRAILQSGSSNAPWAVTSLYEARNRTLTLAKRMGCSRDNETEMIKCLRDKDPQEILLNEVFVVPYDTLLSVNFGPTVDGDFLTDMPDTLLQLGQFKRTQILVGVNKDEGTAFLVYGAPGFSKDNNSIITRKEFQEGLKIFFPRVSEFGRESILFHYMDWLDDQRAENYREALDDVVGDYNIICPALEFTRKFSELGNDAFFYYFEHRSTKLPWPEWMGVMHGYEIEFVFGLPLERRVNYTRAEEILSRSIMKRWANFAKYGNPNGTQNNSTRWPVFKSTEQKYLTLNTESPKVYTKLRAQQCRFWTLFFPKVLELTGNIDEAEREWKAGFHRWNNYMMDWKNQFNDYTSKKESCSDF

Acetylcholine esterase [6] = target: Acetylcholine esterase (Electrophorus electricus, UniProt O42275); details: Electric eel; Literature 5 (tacrine line prints 6); read-out: Acetylcholine esterase inhibitory activity (IC50); cited from earlier work
Sequence of Acetylcholine esterase (Electrophorus electricus, UniProt O42275) (O42275 24-633): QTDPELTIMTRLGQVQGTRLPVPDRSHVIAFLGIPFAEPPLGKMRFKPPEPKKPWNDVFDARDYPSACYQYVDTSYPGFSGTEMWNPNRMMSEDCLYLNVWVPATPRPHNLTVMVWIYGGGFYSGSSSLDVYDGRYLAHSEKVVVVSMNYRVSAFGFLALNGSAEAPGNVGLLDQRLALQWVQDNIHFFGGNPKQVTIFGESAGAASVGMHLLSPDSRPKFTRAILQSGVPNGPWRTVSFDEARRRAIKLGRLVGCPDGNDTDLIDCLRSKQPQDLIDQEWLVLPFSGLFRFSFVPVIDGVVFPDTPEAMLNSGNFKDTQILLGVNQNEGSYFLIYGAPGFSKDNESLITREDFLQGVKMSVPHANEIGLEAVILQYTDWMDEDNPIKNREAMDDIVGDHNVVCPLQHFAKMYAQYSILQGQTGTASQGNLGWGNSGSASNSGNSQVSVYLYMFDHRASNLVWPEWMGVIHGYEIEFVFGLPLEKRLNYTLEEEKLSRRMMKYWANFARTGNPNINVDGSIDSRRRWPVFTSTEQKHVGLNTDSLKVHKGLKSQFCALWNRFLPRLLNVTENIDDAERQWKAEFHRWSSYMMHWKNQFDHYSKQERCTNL

[7] = system: Hartley male guinea pig, urethane anesthesia; assay: Pressure/flow study using guinea pig (Example 3); format: in vivo; details: for Amount of urination, proportion for value before administration (%) / At maximum urine flow rate Inner pressure of bladder, proportion for value before administration (%) / Maximum urine flow rate, proportion for value before administration (%): i.v.; for Bladder compliance, proportion for value before administration (%) / Bladder volume, proportion for value before administration (%): iv; for change of the parameters at urination and at collection of urine (text): intravenous administration
Procedure: A Hartley male guinea pig of 5 weeks old (Japan SLC) was used. After urethane anesthesia, the medial incision of the lower abdomen was carried out, and the bladder was exposed. Two injection needles (20G) with which a polyethylene tube (PE-100) was linked were inserted in the bladder, and one needle was used for injection of saline and another needle was used for measurement of the inner pressure of the bladder. The injection of saline was continuously carried out at a rate of 18 mL/h using a syringe pump (SP-100S, JMS, and Hiroshima), the injection was stopped after intermittent urination was confirmed 3 times at minimum, and the saline in the bladder was removed by suction. Injection was started again, and the injection was stopped when the raise of the inner pressure of the bladder just before urination was confirmed. The amount of urine excreted was measured by an electronic weighing machine (HX-400, A&D, and Tokyo) and the inner pressure of the bladder was measured using a pressure transducer (AP641G, NIPPON KODEN Corporation). The analogue data of the weight of urine and the inner pressure of the bladder were inputted in a multi-channel data analyzer (MP-100A-CE, Biopac systems), and analyzed by a proprietary software (Acqknowledge, Biopac systems). The sampling interval of data was 0.1 second and a low pass filter was applied to the data of discharge amount and urine flow rate at 0.5 Hz in order to remove noise. A delay time of 0.1 second in weighing the urine was rectified, and the urine flow rate was determined by differentiating the value of discharge amount. After a value before twice administration of the drug was measured, the drugs (the compound A, distigmine, neostigigmine and bethanechol) were intravenously administrated. Saline in the bladder was extracted after 10 minutes of administration of the compound A, bethanechol and neostigigmine and after 30 minutes of administration of distigmine, and injection was started again to measure data. The drugs were dissolved with distilled water so that administration volume was 0.5 mL/kg. Parameters (bladder volume, the amount of urination, the maximum urine flow rate, the inner pressure of the bladder at the maximum urine flow, bladder compliance) below were measured. The bladder compliance was calculated from intersection point (the threshold of bladder volume, threshold pressure) which was obtained by determining regression line in the respective curves of the inner pressure of the bladder at collection of urine and urinary reflex. The change rate before and after administration of the drug was calculated for the respective parameters and the calibration of significant difference was carried out by a solvent administration group and Dunnett calibration (Table 6 and Table 7).

[8] = target: T3, acetylcholine esterase of human erythrocyte origin (Homo sapiens, UniProt P22303); assay: biochemical; format: biochemical
T3 construct: acetylcholine esterase of human erythrocyte origin; purchased Sigma, St. Louis, Mo., USA; host or cells: human erythrocytes
T3 sequence (P22303 32-617 isoform P22303-2 limits assumed): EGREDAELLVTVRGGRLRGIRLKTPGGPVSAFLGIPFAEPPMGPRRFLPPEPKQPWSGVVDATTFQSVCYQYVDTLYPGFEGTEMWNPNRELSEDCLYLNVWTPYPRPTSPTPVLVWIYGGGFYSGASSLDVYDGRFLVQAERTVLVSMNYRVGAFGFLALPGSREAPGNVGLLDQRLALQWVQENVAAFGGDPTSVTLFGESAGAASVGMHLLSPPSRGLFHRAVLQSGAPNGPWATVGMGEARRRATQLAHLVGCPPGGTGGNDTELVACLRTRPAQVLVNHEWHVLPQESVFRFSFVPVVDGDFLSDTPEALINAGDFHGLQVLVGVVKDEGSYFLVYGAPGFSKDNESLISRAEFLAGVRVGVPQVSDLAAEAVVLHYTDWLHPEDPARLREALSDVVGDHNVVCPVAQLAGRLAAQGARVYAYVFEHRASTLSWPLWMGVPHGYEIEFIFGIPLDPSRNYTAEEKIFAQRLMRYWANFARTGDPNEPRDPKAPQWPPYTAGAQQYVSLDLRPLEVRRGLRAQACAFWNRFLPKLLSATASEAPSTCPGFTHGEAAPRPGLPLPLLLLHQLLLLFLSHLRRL
Procedure: The AChE inhibitory activity and the BuChE inhibitory activity were determined by a thiocholine method (Ellman method) using acetylcholine esterase of human erythrocyte origin (Sigma, St. Louis, Mo., USA) and butyrylcholine esterase of human serum origin (Biogenesis, Poole, UK). Acetylcholine esterase or butyrylcholine esterase was diluted to a concentration of 0.2 IU/mL with 80 mM tris-HCL buffers (pH=7.4) containing 0.3% bovine serum albumin (BSA) to prepare an enzyme preparation. […] The stock solution was diluted at 3-fold common ratio with 10% DMSO and 80 mM tris-HCl buffers containing 0.3% BSA. On a 96 wells microplate, 20 μL of the drug solution with a given concentration, 30 μL of 80 mM tris-HCl buffers containing 0.3% BSA and 50 μL of the enzyme preparation were distributed, and incubated at room temperature for 1 hour after shaking for 10 seconds. […] For the respective drugs, the test was repeated twice. The % of control of the increase in light absorption was calculated at each concentration with respect to the respective drugs. % of control=increase in light absorption of drug/increase in light absorption of control×100

Structure (SMILES): CCc1ccccc1NC(=O)Oc1ccc2c(c1)[C@]1(C)CCN(C)O[C@@H]1N2C [Ganstigmine]
- Selectivity (butyrylcholine esterase/acetylcholine esterase) [1]: 115

Structure (SMILES): O=C(CCC1CCN(Cc2ccccc2)CC1)c1ccc2c(c1)NCCCC2 [TAK-147]
- IC50 (Acetylcholine esterase [2]): 0.051 µM
- IC50 (Butyrylcholine esterase [3]): 24 µM

Structure (SMILES): CN(C)C(=O)Oc1cccc([N+](C)(C)C)c1 [Neostigigmine]
- Tension (%) (bladder muscle; 0.01 μM): −0.95 ± 0.37%
- Tension (%) (bladder muscle; 0.03 μM): −0.31 ± 0.25%
- Tension (%) (bladder muscle; 0.1 μM): 1.52 ± 0.37 %
- Tension (%) (bladder muscle; 0.3 μM): 6.87 ± 1.25 %
- Tension (%) (bladder muscle; 1 μM): 17.78 ± 2.25 %
- effect on basic tension (bladder muscle; drug alone): increased basic tension significantly and concentration-dependently
- IC50 [4]: 0.6 µM
- inhibitory activity for human butyrylcholine esterase [4]: inhibitory activity was confirmed
- IC50 (Butyrylcholine esterase [5]): 0.1 µM
- IC50 (Acetylcholine esterase [6]): 5 µM
- Amount of urination, proportion for value before administration (%) ([7]; 0.01 mg/kg): 107.7 ± 17.2%
- At maximum urine flow rate Inner pressure of bladder, proportion for value before administration (%) ([7]; 0.01 mg/kg): 112.3 ± 4.2%
- Maximum urine flow rate, proportion for value before administration (%) ([7]; 0.01 mg/kg): 79.4 ± 11.5%
- Bladder compliance, proportion for value before administration (%) ([7]; 0.01 mg/kg): 61.5 ± 8.6%
- Bladder volume, proportion for value before administration (%) ([7]; 0.01 mg/kg): 81.1 ± 8.9%
- Amount of urination, proportion for value before administration (%) ([7]; 0.03 mg/kg): 91.6 ± 14.9%
- At maximum urine flow rate Inner pressure of bladder, proportion for value before administration (%) ([7]; 0.03 mg/kg): 128.5 ± 10.9 %
- Maximum urine flow rate, proportion for value before administration (%) ([7]; 0.03 mg/kg): 67.2 ± 9.9%
- Bladder compliance, proportion for value before administration (%) ([7]; 0.03 mg/kg): 59.4 ± 9.1 %
- Bladder volume, proportion for value before administration (%) ([7]; 0.03 mg/kg): 86.4 ± 7.5%
- Amount of urination, proportion for value before administration (%) ([7]; 0.1 mg/kg): 58.3 ± 16.4%
- At maximum urine flow rate Inner pressure of bladder, proportion for value before administration (%) ([7]; 0.1 mg/kg): 130.9 ± 8.7 %
- Maximum urine flow rate, proportion for value before administration (%) ([7]; 0.1 mg/kg): 54.0 ± 13.8%
- Bladder compliance, proportion for value before administration (%) ([7]; 0.1 mg/kg): 31.7 ± 7.1 %
- Bladder volume, proportion for value before administration (%) ([7]; 0.1 mg/kg): 66.5 ± 14.7%
- change of the parameters at urination and at collection of urine (text) [7]: lowered the bladder compliance significantly
- change of the parameters at urination and at collection of urine (text) ([7]; listed as neostigigmine): did not show clear action for the amount of urination and the maximum urine flow rate and increased urination pressure significantly
- inhibition of the activity of human acetylcholine esterase [8]: inhibited the activity of human acetylcholine esterase
